Tested on: HBV
Test: Inhibition of HBV infection of human liver buds by drugs (intracellular HBV 3.5k RNA and HBV DNA in culture supernatant)
Format: cell-based
Conditions: HBV 5,000 copies per cell, cultured for 10 days, FIG. 8, vs Con
Procedure: The endodermal cells obtained, vascular endothelial cells (human umbilical vein-derived endothelial cells) (Lonza, Basel, Switzerland) and undifferentiated mesenchymal cells (human bone marrow-derived mesenchymal stem cells) (Lonza, Basel, Switzerland) were mixed at 10:7:1 (400 cells: 280 cells: 40 cells per organ bud) to prepare human liver buds (120-150 μm in size).
The human liver buds prepared in (2) above were cultured in DMSO-containing medium for 7 days and further cultured in HGF-, OSM- and DEX-containing medium for 7 days, followed by infection with HBV. HBV was recovered from culture supernatant of HepG2.2.15 cells which had been prepared by transferring the intact HBV genome (genotype D) into human hepatoma cell line HepG2 by lipofection. The liver buds were infected with approx. 500 copies of HBV per endodermal cell in 4% PEG8000-containing medium and cultured for about 30 days.
(5) Culture supernatants of human liver buds and human iPS-cell derived hepatocytes were recovered at days 10, 20 and 30 post HBV infection, followed by measurement of HBV DNA. (6) Human liver buds and human iPS-cell derived hepatocytes were recovered at days 10, 20 and 30 post HBV infection, followed by measurement of HBV 3.5k RNA. (7) The inside of human liver buds was immunostained with HBc antibody at days 10, 20 and 30 post HBV infection. (8) Human primary hepatocytes (PXB cells; Phoenix Bio) were infected with the culture supernatant of human liver buds at day 20 post HBV infection. (9) Human liver buds and human iPS-cell derived hepatocytes were recovered at day 20 post HBV infection, followed by measurement of covalently closed circular DNA (cccDNA). (10) Human liver buds at day 10 post HBV infection and non-HBV-infected human liver buds in the corresponding period were fixed with paraformaldehyde and glutaraldehyde, and electron micrographs were taken. (11) Human liver buds were infected with HBV (5,000 copies per cell). […] Intracellular HBV 3.5k RNA and HBV DNA in culture supernatant were measured.

With interferon γ [IFN-γ] the “infection of human liver bud with HBV” value (interferon γ 1000 U/ml) was “inhibited”.

interferon α [IFN-α] was tested, and the “infection of human liver bud with HBV” value (interferon α 1000 U/ml) was “inhibited”.

In the case of C=C1[C@H](CO)[C@@H](O)C[C@@H]1n1cnc2c(=O)[nH]c(N)nc21 [ETV, entecavir, reference compound], the “infection of human liver bud with HBV” value (entecavir) is reported as “inhibited”.
